Values after ≈ are worked out from the molar mass of the structure shown.
Assays:
Type in all cases: cell-based
[1] = tested on: ATCC13883 strain (Klebsiella pneumoniae); assay: Checkerboard antibacterial synergistic activity test with polymyxin E (FIC); design: key: FIC≤0.5 synergy; 0.5–1 additive; 1–2 indifferent; ≥2 antagonism; details: combined with polymyxin E
Method in brief: (§1)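 Polymyxin E was diluted in MH broth to 16–0.015 μg/ml and the test compound to 256–4 μg/ml (two-fold series, pre-mixing concentrations), combined checkerboard-style in 96-well plates with bacterial suspension and blank controls, and incubated at 37° C. for 16 h. FIC ≤0.5 was scored synergistic, >0.5 to <1 additive, 1–2 indifferent, ≥2 antagonistic.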

[2] = tested on: ATCC19606 strain (Acinetobacter baumannii); assay: as above; design: key: FIC≤0.5 synergy; 0.5–1 additive; 1–2 indifferent; ≥2 antagonism; details: combined with polymyxin E
Method in brief: as §1

[3] = tested on: ATCC25922 strain (Escherichia coli); assay: as above; design: key: FIC≤0.5 synergy; 0.5–1 additive; 1–2 indifferent; ≥2 antagonism; details: combined with polymyxin E
Method in brief: as §1

[4] = tested on: ATCC9027 strain (Pseudomonas aeruginosa); assay: as above; design: key: FIC≤0.5 synergy; 0.5–1 additive; 1–2 indifferent; ≥2 antagonism; details: combined with polymyxin E
Method in brief: as §1

[5] = tested on: ATCC13883 strain (Klebsiella pneumoniae); assay: Broth microdilution, antibacterial activity of the compound used alone; details: for MIC: read-out: Antibacterial activity of the compound of Formula I, ATCC13883
Text: (§2) The broth microdilution method was used to test the antibacterial effects of the compounds of the present invention against various Gram-negative bacterial strains when used alone.

[6] = tested on: ATCC19606 strain (Acinetobacter baumannii); assay: as above; details: for MIC: read-out: Antibacterial activity of the compound of Formula I, ATCC19606
Text: as §2

[7] = tested on: ATCC25922 strain (Escherichia coli); assay: as above; details: for MIC: read-out: Antibacterial activity of the compound of Formula I, ATCC25922
Text: as §2

[8] = tested on: ATCC9027 strain (Pseudomonas aeruginosa); assay: as above; details: for MIC: read-out: Antibacterial activity of the compound of Formula I, ATCC9027
Text: as §2

| SMILES | Synergistic activity (FIC value) ATCC13883 [1] | Synergistic activity (FIC value) ATCC19606 [2] | Synergistic activity (FIC value) ATCC25922 [3] | Synergistic activity (FIC value) ATCC9027 [4] | Antibacterial activity of the compound of Formula I, ATCC13883 [5] [µg/mL] | Antibacterial activity of the compound of Formula I, ATCC19606 [6] [µg/mL] | Antibacterial activity of the compound of Formula I, ATCC25922 [7] [µg/mL] | Antibacterial activity of the compound of Formula I, ATCC9027 [8] [µg/mL] | MIC [5] [µg/mL] | MIC [6] [µg/mL] | MIC [7] [µg/mL] | MIC [8] [µg/mL] |
| --- | --- | --- | --- | --- | --- | --- | --- | --- | --- | --- | --- | --- |
| NC(N)=Nc1nc(-c2cc(C(F)(F)F)c(O)c(C(F)(F)F)c2)co1 [Compound I-45] | 0.19 | 0.13 | 0.52 | 1.25 | 256 | 256 | 256 | 256 |  |  |  |  |
| CC(C)=CCOc1ccccc1-c1csc(N=C(N)N)n1 [Compound I-46] | 0.25 | 0.31 | 0.27 | 0.52 | 256 | 256 | 256 | 256 |  |  |  |  |
| CC(C)=CCOc1cccc(-c2csc(N=C(N)N)n2)c1 [Compound I-47] | 1.25 | 0.75 | 0.5 | 1.25 |  |  |  |  | 256 (≈ 847 µM) | 256 (≈ 847 µM) | 256 (≈ 847 µM) | 256 (≈ 847 µM) |
| CC(C)=CCOc1ccc(-c2csc(N=C(N)N)n2)cc1 [Compound I-48] | 0.51 | 0.16 | 0.51 | 0.75 | 256 | 256 | 256 | 256 |  |  |  |  |
| CC(C)=CCOc1cc(OCC=C(C)C)cc(-c2nc(N=C(N)N)[nH]c2C)c1 [Compound I-49] | 0.53 | 0.25 | 1.25 | 0.53 | 256 | 256 | 256 | 256 |  |  |  |  |
| CC(C)=CCOc1cc(-c2nc(N=C(N)N)oc2Cl)cc(OCC=C(C)C)c1O [Compound I-50] | 0.16 | 0.13 | 0.26 | 0.31 | 256 | 256 | 256 | 256 |  |  |  |  |
| Cc1cc(C)c(-c2csc(N=C(N)N)n2)c(C)c1 [Compound I-51] | 1.25 | 1.25 | 0.5 | 1.25 |  |  |  |  | 256 (≈ 983 µM) | 256 (≈ 983 µM) | 256 (≈ 983 µM) | 256 (≈ 983 µM) |
| NC(N)=Nc1nc(-c2c(Cl)cc(Cl)cc2Cl)c[nH]1 [Compound I-52] | 0.25 | 0.3 | 0.5 | 0.63 | 256 | 256 | 256 | 256 |  |  |  |  |
| NC(N)=Nc1nc(-c2c(Br)cc(Br)cc2Br)c(I)o1 [Compound I-53] | 0.25 | 0.28 | 0.5 | 0.63 | 256 | 256 | 256 | 256 |  |  |  |  |
| NC(N)=Nc1nc(-c2c(I)cc(I)cc2I)cs1 [Compound I-54] | 0.33 | 0.15 | 0.39 | 0.62 | 256 | 256 | 256 | 256 |  |  |  |  |
| NC(N)=Nc1nc(-c2cccc3ccccc23)cs1 [Compound I-55] | 0.31 | 0.13 | 0.38 | 0.53 | 256 | 256 | 256 | 256 |  |  |  |  |
| NC(N)=Nc1nc(-c2ccc3ccccc3c2)cs1 [Compound I-56] | 1.25 | 1.25 | 0.5 | 1.25 |  |  |  |  | 256 (≈ 954 µM) | 256 (≈ 954 µM) | 256 (≈ 954 µM) | 256 (≈ 954 µM) |
| Cc1cccc2cccc(-c3csc(N=C(N)N)n3)c12 [Compound I-57] | 0.25 | 0.3 | 0.5 | 0.63 | 256 | 256 | 256 | 256 |  |  |  |  |
| Cc1ccc2cccc(-c3nc(N=C(N)N)oc3C)c2c1 [Compound I-58] | 0.25 | 0.28 | 0.5 | 0.63 | 256 | 256 | 256 | 256 |  |  |  |  |
| Cc1ccc2c(-c3coc(N=C(N)N)n3)cccc2c1 [Compound I-59] | 0.33 | 0.15 | 0.39 | 0.62 | 256 | 256 | 256 | 256 |  |  |  |  |
